# Peptide text beside a SMILES is read from it.
# Legend:
# Assay in all cases: NCI-60 screening
# Assay type in all cases: cell-based, human
# COLO 205 = COLO 205 (Colon); log GI50; 48 h, sulforhodamine B, 10^-4 to 10^-8 M
# Protocol: (§1) NCI-60 screening procedure
# (§2) The NCI-60 screening procedure was performed by the Developmental Therapeutics Program of the National Cancer Institute. The procedure was performed as previously described24 in 96-well microtiter plates. Each peptide was tested in a 5-concentration assay, starting at 10^-4 M and diluting 10-fold to the lowest 10^-8 M concentration. The peptides were incubated for 48 h and the cell concentration was assayed by using the sulforhodamine B assay25 and optical density measurements. The growth inhibition (GI50) value24, measures the growth inhibitory power of the drug agent. The GI50 value is the concentration of the test drug for which the condition in Eq. S1 is met, where T is the optical density of the test well after a 48-h exposure to the peptide, T0 the optical density before applying the peptide drug and C the control optical density of a well where no peptide was applied.
# DU-145 = DU-145 (Prostate); log GI50; 48 h, sulforhodamine B, 10^-4 to 10^-8 M
# Protocol: as §1, §2
# NCI-H322M = NCI-H322M (Lung); log GI50; 48 h, sulforhodamine B, 10^-4 to 10^-8 M
# Protocol: as §1, §2
# OVCAR-8 = OVCAR-8 (Ovarian); log GI50; 48 h, sulforhodamine B, 10^-4 to 10^-8 M
# Protocol: as §1, §2
# OVCAR-5 = OVCAR-5 (Ovarian); log GI50; 48 h, sulforhodamine B, 10^-4 to 10^-8 M
# Protocol: as §1, §2
# MDA-MB-468 = MDA-MB-468 (Breast); log GI50; 48 h, sulforhodamine B, 10^-4 to 10^-8 M
# Protocol: as §1, §2
# HCT-116 = HCT-116 (Colon); log GI50; 48 h, sulforhodamine B, 10^-4 to 10^-8 M
# Protocol: as §1, §2
# ACHN = ACHN (Renal); log GI50; 48 h, sulforhodamine B, 10^-4 to 10^-8 M
# Protocol: as §1, §2
# MALME-3M = MALME-3M (Melanoma); log GI50; 48 h, sulforhodamine B, 10^-4 to 10^-8 M
# Protocol: as §1, §2
# IGVROV1 = IGVROV1 (Ovarian); log GI50; 48 h, sulforhodamine B, 10^-4 to 10^-8 M
# Protocol: as §1, §2
# SK-MEL-5 = SK-MEL-5 (Melanoma); log GI50; 48 h, sulforhodamine B, 10^-4 to 10^-8 M
# Protocol: as §1, §2
# NCI-H522 = NCI-H522 (Lung); log GI50; 48 h, sulforhodamine B, 10^-4 to 10^-8 M
# Protocol: as §1, §2
# MCF7 = MCF7 (Breast); log GI50; 48 h, sulforhodamine B, 10^-4 to 10^-8 M
# Protocol: as §1, §2
# HOP-92 = HOP-92 (Lung); log GI50; 48 h, sulforhodamine B, 10^-4 to 10^-8 M
# Protocol: as §1, §2
# K-562 = K-562 (Leukemia); log GI50; 48 h, sulforhodamine B, 10^-4 to 10^-8 M
# Protocol: as §1, §2
# UO-31 = UO-31 (Renal); log GI50; 48 h, sulforhodamine B, 10^-4 to 10^-8 M
# Protocol: as §1, §2
# CAKI-1 = CAKI-1 (Renal); log GI50; 48 h, sulforhodamine B, 10^-4 to 10^-8 M
# Protocol: as §1, §2
# NCI/ADR-RES = NCI/ADR-RES (Ovarian); log GI50; 48 h, sulforhodamine B, 10^-4 to 10^-8 M
# Protocol: as §1, §2
# SNB-75 = SNB-75 (CNS); log GI50; 48 h, sulforhodamine B, 10^-4 to 10^-8 M
# Protocol: as §1, §2
# TK-10 = TK-10 (Renal); log GI50; 48 h, sulforhodamine B, 10^-4 to 10^-8 M
# Protocol: as §1, §2
# HCC-2998 = HCC-2998 (Colon); log GI50; 48 h, sulforhodamine B, 10^-4 to 10^-8 M
# Protocol: as §1, §2
# EKVX = EKVX (Lung); log GI50; 48 h, sulforhodamine B, 10^-4 to 10^-8 M
# Protocol: as §1, §2
# HS-578T = HS-578T (Breast); log GI50; 48 h, sulforhodamine B, 10^-4 to 10^-8 M
# Protocol: as §1, §2
# SW-620 = SW-620 (Colon); log GI50; 48 h, sulforhodamine B, 10^-4 to 10^-8 M
# Protocol: as §1, §2
# LOX IMVI = LOX IMVI (Melanoma); log GI50; 48 h, sulforhodamine B, 10^-4 to 10^-8 M
# Protocol: as §1, §2
# HCT-15 = HCT-15 (Colon); log GI50; 48 h, sulforhodamine B, 10^-4 to 10^-8 M
# Protocol: as §1, §2
# PC-3 = PC-3 (Prostate); log GI50; 48 h, sulforhodamine B, 10^-4 to 10^-8 M
# Protocol: as §1, §2
Compound,Log GI (M) (COLO 205),Log GI (M) (DU-145),Log GI (M) (NCI-H322M),Log GI (M) (OVCAR-8),Log GI (M) (OVCAR-5),Log GI (M) (MDA-MB-468),Log GI (M) (HCT-116),Log GI (M) (ACHN),Log GI (M) (MALME-3M),Log GI (M) (IGVROV1),Log GI (M) (SK-MEL-5),Log GI (M) (NCI-H522),Log GI (M) (MCF7),Log GI (M) (HOP-92),Log GI (M) (K-562),Log GI (M) (UO-31),Log GI (M) (CAKI-1),Log GI (M) (NCI/ADR-RES),Log GI (M) (SNB-75),Log GI (M) (TK-10),other results
CC[C@H](C)[C@H](NC(=O)[C@H](CCCNC(=N)N)NC(=O)[C@H](Cc1c[nH]c2ccccc12)NC(=O)[C@@H](NC(=O)[C@H](CCCCN)NC(=O)[C@H](CCCCN)NC(=O)[C@@H](NC(=O)[C@@H](NC(=O)[C@@H](NC(=O)[C@H](CCCCN)NC(=O)[C@H](Cc1ccccc1)NC(=O)[C@H](CCCCN)NC(=O)[C@H](CCCCN)NC(=O)[C@H](Cc1ccccc1)NC(=O)[C@@H](NC(=O)[C@@H](N)CCCCN)[C@@H](C)CC)[C@@H](C)O)[C@@H](C)CC)[C@@H](C)CC)C(C)C)C(=O)N[C@@H](Cc1ccccc1)C(=O)NCC(=O)N[C@@H](CCCNC(=N)N)C(=O)N[C@@H](Cc1ccccc1)C(N)=O [AmphiArc2] (H-KIFKKFKTIIKKVWRIFGRF-NH2),-5.58 M,-5.77 M,-5.73 M,-5.48 M,-5.68 M,-5.88 M,-5.49 M,-5.71 M,-5.89 M,-5.68 M,-5.64 M,-5.63 M,-5.52 M,-5.70 M,-5.55 M,-5.74 M,-5.71 M,-5.53 M,-5.60 M,-5.65 M,Log GI (M) (HCC-2998): -5.58 M; Log GI (M) (EKVX): -5.73 M; Log GI (M) (HS-578T): -5.65 M; Log GI (M) (SW-620): -5.59 M; Log GI (M) (LOX IMVI): -5.53 M; Log GI (M) (HCT-15): -5.58 M; Log GI (M) (PC-3): -5.66 M
CC[C@H](C)[C@H](NC(=O)[C@H](CCCCN)NC(=O)[C@H](CCCCN)NC(=O)[C@@H](NC(=O)[C@@H](NC(=O)[C@@H](N)Cc1c[nH]cn1)[C@@H](C)CC)[C@@H](C)CC)C(=O)N[C@@H](CCCNC(=N)N)C(=O)N[C@H](C(=O)N[C@@H](Cc1c[nH]c2ccccc12)C(=O)N[C@@H](Cc1ccc(O)cc1)C(=O)N[C@@H](CCCNC(=N)N)C(=O)N[C@@H](CCCCN)C(=O)N[C@@H](C)C(=O)N[C@@H](Cc1c[nH]c2ccccc12)C(=O)N[C@@H](Cc1c[nH]cn1)C(=O)N[C@H](C(=O)N[C@@H](CC(C)C)C(=O)NCC(=O)N[C@@H](CCCCN)C(=O)N[C@H](C(N)=O)C(C)C)C(C)C)[C@@H](C)O [Off2] (H-HIIKKIRTWYRKAWHVLGKV-NH2),-5.68 M,-5.37 M,-5.30 M,-5.32 M,-5.21 M,-5.19 M,-4.76 M,-4.88 M,-5.64 M,-5.36 M,-5.40 M,-4.96 M,-5.69 M,-5.68 M,-5.18 M,-4.73 M,-5.48 M,-5.23 M,-4.92 M,-5.49 M,Log GI (M) (HCC-2998): -5.41 M; Log GI (M) (EKVX): -5.63 M; Log GI (M) (HS-578T): -5.45 M; Log GI (M) (SW-620): -5.02 M; Log GI (M) (LOX IMVI): -4.66 M; Log GI (M) (HCT-15): -5.37 M; Log GI (M) (PC-3): -5.55 M

# — paper PMC6677754, “In silico design and optimization of selective membranolytic anticancer peptides” (Scientific Reports, 2019)
